Measured values from ChEMBL document CHEMBL3102756, “Synthesis and biological evaluation of a series of aminoalkyl-tetralones and tetralols as dual dopamine/serotonin ligands” (Eur J Med Chem, 2014).

What was measured:
[1] = biological target: T1, 5-hydroxytryptamine receptor 2A (Homo sapiens, UniProt P28223); experiment: Displacement of [3H]ketanserin from human 5-HT2A receptor
[2] = biological target: T1, 5-hydroxytryptamine receptor 2A; conditions: CHO
[3] = biological target: D(2) dopamine receptor (Homo sapiens) (UniProt P14416); conditions: CHO
Sequence of D(2) dopamine receptor (Homo sapiens) (P14416 whole entry): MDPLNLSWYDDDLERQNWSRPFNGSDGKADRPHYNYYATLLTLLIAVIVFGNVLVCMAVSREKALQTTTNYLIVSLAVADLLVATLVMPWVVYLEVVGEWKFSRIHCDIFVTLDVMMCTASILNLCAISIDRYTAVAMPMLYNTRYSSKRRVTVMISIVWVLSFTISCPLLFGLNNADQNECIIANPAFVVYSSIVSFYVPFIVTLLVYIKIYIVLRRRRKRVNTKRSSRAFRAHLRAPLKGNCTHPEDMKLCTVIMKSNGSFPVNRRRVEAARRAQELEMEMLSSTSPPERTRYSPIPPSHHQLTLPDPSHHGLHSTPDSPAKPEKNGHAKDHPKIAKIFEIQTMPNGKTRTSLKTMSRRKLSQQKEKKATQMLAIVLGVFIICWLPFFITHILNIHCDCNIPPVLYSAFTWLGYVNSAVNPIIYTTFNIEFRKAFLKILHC
Description: Competitive antagonist activity at human D2 receptor expressed in CHO cells assessed as inhibition of cAMP release after 30 mins by HTRF assay

[4] = biological target: T1, 5-hydroxytryptamine receptor 2A; experiment: Binding affinity for 5-HT2A receptor (unknown origin)

T1 sequence (P28223 whole entry): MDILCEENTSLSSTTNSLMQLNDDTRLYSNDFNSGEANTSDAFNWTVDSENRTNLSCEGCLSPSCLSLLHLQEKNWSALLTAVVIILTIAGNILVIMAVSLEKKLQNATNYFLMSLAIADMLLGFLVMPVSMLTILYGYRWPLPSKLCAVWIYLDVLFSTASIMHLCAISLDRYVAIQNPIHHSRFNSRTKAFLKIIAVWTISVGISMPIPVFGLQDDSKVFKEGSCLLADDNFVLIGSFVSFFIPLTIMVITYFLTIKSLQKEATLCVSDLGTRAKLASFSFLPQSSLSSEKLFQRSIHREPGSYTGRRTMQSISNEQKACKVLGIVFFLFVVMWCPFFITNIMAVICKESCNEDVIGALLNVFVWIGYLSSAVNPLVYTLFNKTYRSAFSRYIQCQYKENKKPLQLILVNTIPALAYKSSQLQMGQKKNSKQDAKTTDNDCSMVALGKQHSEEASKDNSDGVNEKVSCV

Ki [1] [nM]	pKb [2]	pKb [3]	Ki [4] [nM]	SMILES
6.61	–	–	–	Nc1ccc2c(c1)C(O)C(CCN1CCC(c3noc4cc(F)ccc34)CC1)CC2 (stereo unspecified)
11	–	–	–	O=[N+]([O-])c1ccc2c(c1)C(O)C(CCN1CCC(c3noc4cc(F)ccc34)CC1)CC2 (stereo unspecified)
513	–	–	–	COc1ccccc1N1CCN(CCC2CCc3ccc([N+](=O)[O-])cc3C2O)CC1 (stereo unspecified)
15.8	7.84	7.55	–	O=C1CC(CN2CCC(c3noc4cc(F)ccc34)CC2)Cc2cc(-c3ccccc3)ccc21 (stereo unspecified)
4.47	7.82	6.32	–	Nc1ccc2c(c1)C(O)C(CCN1CCC(C(=O)c3ccc(F)cc3O)CC1)CC2 (stereo unspecified)
31.6	–	–	–	CC(=O)c1ccc2c(c1)CC(CN1CCC(c3noc4cc(F)ccc34)CC1)CC2=O (stereo unspecified)
631	–	–	–	O=C1CC(CN2CCC(C(=O)c3ccc(F)cc3)CC2)Cc2cc(-c3ccccc3)ccc21 (stereo unspecified)
794	–	–	–	COc1ccccc1N1CCN(CCC2CCc3ccc([N+](=O)[O-])cc3C2=O)CC1 (stereo unspecified)
158	–	–	–	COc1ccccc1N1CCN(CCC2CCc3ccc(N)cc3C2O)CC1 (stereo unspecified)
23.4	–	–	–	Nc1ccc2c(c1)C(=O)C(CCN1CCC(C(=O)c3ccc(F)cc3O)CC1)CC2 (stereo unspecified)
63.1	–	–	–	CC(=O)c1ccc2c(c1)CC(CN1CCC(C(=O)c3ccc(F)cc3)CC1)CC2=O (stereo unspecified)
5.01	8.76	7.53	–	Nc1ccc2c(c1)C(=O)C(CCN1CCC(c3noc4cc(F)ccc34)CC1)CC2 (stereo unspecified)
19.1	–	–	–	O=C1c2cc([N+](=O)[O-])ccc2CCC1CCN1CCC(c2noc3cc(F)ccc23)CC1 (stereo unspecified)
–	–	–	2.75	O=C1CC(CN2CCC(c3noc4cc(F)ccc34)CC2)Cc2ccccc21 (stereo unspecified)
42.7	–	–	–	COc1ccccc1N1CCN(CCC2CCc3ccc(N)cc3C2=O)CC1 (stereo unspecified)
